We go through five compounds from ChEMBL document CHEMBL5329169, “Recent developments in membrane targeting antifungal agents to mitigate antifungal resistance” (2023).

Values after ≈ are worked out from the molar mass of the structure shown.

What all share (format): functional
Assay [1] deals with Candida albicans. Nature of the assay: Antifungal activity against Candida albicans ATCC 10231 assessed as fungal growth inhibition measured after 24 hrs by two fold serial dilution technique.
In the next assay the test system is Cryptococcus neoformans. Nature of the assay: Antifungal activity against Cryptococcus neoformans H99 assessed as fungal growth inhibition measured after 20 hrs by microplate assay.
Assay [2] relates to Candida albicans. Put plainly: Antifungal activity against Candida albicans SC5314 assessed as fungal growth inhibition measured after 20 hrs by microplate assay.
The subject of assay [3] is Candida albicans. Nature of the assay: Antifungal activity against Candida albicans assessed as fungal growth inhibition measured after 48 hrs by broth microdilution assay.
Assay [4] deals with Candida albicans. Put plainly: Antifungal activity against Candida albicans SC5314 assessed as log reduction in fungal growth at 2x MIC measured after 6 hrs.

A word on the MIC80: it is an inhibitory concentration at the 80% level, which refers to growth in some studies and to a panel of isolates in others. As to `CC[n+]1ccn(CCC[C@@H](C)[C@H]2CC[C@H]3[C@@H]4CC[C@@H]5C[C@H](O)CC[C@]5(C)[C@H]4CC[C@]23C)c1.[I-]`, in the assay with Candida albicans [1], the MIC80 worked out at 0.5 µg/mL. Regarding `CCCCCCCCCCN(Cc1cccc2ccccc12)C(=O)C(N)CCCCN` (stereo unspecified), the MIC80 turned out to be 3.1 µg/mL (≈ 7.28 µM) in the assay on Cryptococcus neoformans and 12.5 µg/mL (≈ 29.4 µM) with Candida albicans [2].

Take `C[C@H](CCCn1cc[n+](C)c1)[C@H]1CC[C@H]2[C@@H]3CC[C@@H]4C[C@H](O)CC[C@]4(C)[C@H]3CC[C@]12C.[I-]`: in the assay with Candida albicans [1], the MIC80 stood at 0.25 µg/mL.

For the compound `C[C@H](CCC(=O)O)[C@H]1CC[C@H]2[C@@H]3CC[C@@H]4C[C@H](O)CC[C@]4(C)[C@H]3CC[C@]12C` [LITHOCHOLIC ACID], the MIC80 with Candida albicans [3] is 3.12 µg/mL (≈ 8.29 µM).

As to H-GIWKKWIKKWLKKLKNLF-NH2, the Activity in the assay on Candida albicans [4] was determined as 5.55 log reduction.
